Data: US20260070945A1, “MACROCYCLIC IMMUNOMODULATORS” (Bristol-Myers Squibb Company, priority 2022, published 2026)
Where a SMILES comes first, the peptide text is derived from it. Bridges are numbered along the chain shown (N, C = ends). [ ]: non-standard residue; d: D form. The star is where a group is joined. Tyr(3,5-F2) = N[C@@H](Cc1cc(F)c(O)c(F)c1)C(=O)O; Phe(4-COOH) = N[C@@H](Cc1ccc(C(=O)O)cc1)C(=O)O; Tyr(3-Cl) = N[C@@H](Cc1ccc(O)c(Cl)c1)C(=O)O; Bip = N[C@@H](Cc1ccc(-c2ccccc2)cc1)C(=O)O; Phe(3-Cl) = N[C@@H](Cc1cccc(Cl)c1)C(=O)O; Phe(4-CN) = N#Cc1ccc(C[C@H](N)C(=O)O)cc1; Phe(3-Me) = Cc1cccc(C[C@H](N)C(=O)O)c1; Phe(2-F) = N[C@@H](Cc1ccccc1F)C(=O)O; Phe(2-Me) = Cc1ccccc1C[C@H](N)C(=O)O; Val(3-OH) = CC(C)(O)[C@H](N)C(=O)O; 4Pal = N[C@@H](Cc1ccncc1)C(=O)O; 2Thi = N[C@@H](Cc1cccs1)C(=O)O; Aad = N[C@@H](CCCC(=O)O)C(=O)O; Cha = N[C@@H](CC1CCCCC1)C(=O)O; Gly(cPr) = N[C@H](C(=O)O)C1CC1; Phg = N[C@H](C(=O)O)c1ccccc1; Carboxymethyl = O=C(O)C*; NMeA = CN[C@@H](C)C(=O)O; Aun = NCCCCCCCCCCC(=O)O; Dab = NCC[C@H](N)C(=O)O

Target: T1, PD-1/PD-L1 interaction (PE-labeled human PD-L1-Ig binding to Jurkat cell line over-expressing human PD-1) (Homo sapiens, UniProt Q15116)
T1 construct: expressed in transfected cells; host or cells: Jurkat
T1 sequence (Q15116 25-288): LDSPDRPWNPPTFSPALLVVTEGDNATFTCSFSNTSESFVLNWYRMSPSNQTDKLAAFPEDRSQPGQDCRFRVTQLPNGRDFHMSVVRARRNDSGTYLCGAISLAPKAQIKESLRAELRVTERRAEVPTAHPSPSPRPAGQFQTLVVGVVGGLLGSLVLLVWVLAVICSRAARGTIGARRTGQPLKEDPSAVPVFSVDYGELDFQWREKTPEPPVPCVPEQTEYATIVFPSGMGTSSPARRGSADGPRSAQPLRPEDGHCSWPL
Assay: Jurkat-PD-1 Cell Binding High-Content Screening Assay (CBA)
Details: Jurkat-hPD-1 cells, PE-labeled PD-L1-Ig 20 nM final; read-out: Jurkat HPD1 PDL1 IC50
How it was run: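 Read-out: high-content imaging of cell-bound PE fluorescence, with Hoechst 33342 nuclear counterstain after paraformaldehyde fixation. Before labeled ligand (20 nM final, 1 h) was added, compound sat on the cells for 2 h at 37 °C in DMEM/10% FCS.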

First: Cc1cccc(C[C@@H]2NC(=O)[C@H](CC(=O)O)NC(=O)[C@H](Cc3ccc(OCC(=O)O)cc3)NC(=O)[C@H](Cc3ccncc3)NC(=O)CSC[C@@H](C(=O)N[C@@H](CCN)C(=O)NCCCCCCCCCCC(=O)O)NC(=O)[C@H](CO)NC(=O)[C@H](C(C)(C)O)NC(=O)[C@H](CC3CCCCC3)NC(=O)[C@H](CCN)NC(=O)[C@@H](CC(C)C)NC(=O)[C@H](C)N(C)C(=O)[C@H](Cc3ccc(OCC(=O)O)cc3)NC(=O)[C@H](Cc3ccc(-c4ccccc4)cc3)NC(=O)[C@H](Cc3ccc(OCC(=O)O)cc3)NC2=O)c1 [Example 1287] ({CH2CO}-[4Pal]Y(Carboxymethyl)D[Phe(3-Me)]Y(Carboxymethyl)[Bip]Y(Carboxymethyl)[NMeA][dL][Dab][Cha][Val(3-OH)]SC[Dab][Aun]-OH; thioether N-14)
Second: Cc1cccc(C[C@@H]2NC(=O)[C@H](CC(=O)O)NC(=O)[C@H](Cc3ccc(OCC(=O)O)cc3)NC(=O)[C@H](Cc3ccc(C#N)cc3)NC(=O)CSC[C@@H](C(=O)N[C@@H](CCN)C(=O)NCCCCCCCCCCC(=O)O)NC(=O)[C@H](CO)NC(=O)[C@H](C(C)(C)O)NC(=O)[C@H](CC3CCCCC3)NC(=O)[C@H](CCN)NC(=O)[C@@H](CC(C)C)NC(=O)[C@H](C)N(C)C(=O)[C@H](Cc3ccc(OCC(=O)O)cc3)NC(=O)[C@H](Cc3ccc(-c4ccccc4)cc3)NC(=O)[C@H](Cc3ccc(OCC(=O)O)cc3)NC2=O)c1 [Example 1288] ({CH2CO}-[Phe(4-CN)]Y(Carboxymethyl)D[Phe(3-Me)]Y(Carboxymethyl)[Bip]Y(Carboxymethyl)[NMeA][dL][Dab][Cha][Val(3-OH)]SC[Dab][Aun]-OH; thioether N-14)
The IC50 of the first is 1.6-fold lower: 0.009 µM for the first, 0.0147 µM for the second. The first is the more potent here.

Going from `Cc1cccc(C[C@@H]2NC(=O)[C@H](CC(=O)O)NC(=O)[C@H](Cc3ccc(C(=O)O)cc3)NC(=O)[C@H](CCN)NC(=O)CSC[C@@H](C(=O)N[C@@H](CCN)C(=O)NCCCCCCCCCCC(=O)O)NC(=O)[C@H](CO)NC(=O)[C@H](C(C)(C)O)NC(=O)[C@H](CC3CCCCC3)NC(=O)[C@H](CCN)NC(=O)[C@@H](CC(C)C)NC(=O)[C@H](C)N(C)C(=O)[C@H](Cc3ccc(OCC(=O)O)cc3)NC(=O)[C@H](Cc3ccc(-c4ccccc4)cc3)NC(=O)[C@H](Cc3ccccc3F)NC2=O)c1` [Example 1289] ({CH2CO}-[Dab][Phe(4-COOH)]D[Phe(3-Me)][Phe(2-F)][Bip]Y(Carboxymethyl)[NMeA][dL][Dab][Cha][Val(3-OH)]SC[Dab][Aun]-OH; thioether N-14) to `Cc1cccc(C[C@@H]2NC(=O)[C@H](CC(=O)O)NC(=O)[C@H](Cc3ccc(C(=O)O)cc3)NC(=O)[C@H](CCN)NC(=O)CSC[C@@H](C(=O)N[C@@H](CCN)C(=O)NCCCCCCCCCCC(=O)O)NC(=O)[C@H](CO)NC(=O)[C@H](C(C)(C)O)NC(=O)[C@H](CC3CCCCC3)NC(=O)[C@H](CCN)NC(=O)[C@@H](CC(C)C)NC(=O)[C@H](C)N(C)C(=O)[C@H](Cc3ccc(OCC(=O)O)cc3)NC(=O)[C@H](Cc3ccc(-c4ccccc4)cc3)NC(=O)[C@H](Cc3ccccc3C)NC2=O)c1` [Example 1296] ({CH2CO}-[Dab][Phe(4-COOH)]D[Phe(3-Me)][Phe(2-Me)][Bip]Y(Carboxymethyl)[NMeA][dL][Dab][Cha][Val(3-OH)]SC[Dab][Aun]-OH; thioether N-14), the IC50 rises from 0.0324 µM to 0.0487 µM (1.5-fold). The first is the more potent here.

Compared with `Cc1cccc(C[C@@H]2NC(=O)[C@H](CC(=O)O)NC(=O)[C@H](Cc3ccc(C(=O)O)cc3)NC(=O)[C@H](CCN)NC(=O)CSC[C@@H](C(=O)N[C@@H](CCN)C(=O)NCCCCCCCCCCC(=O)O)NC(=O)[C@H](CO)NC(=O)[C@H](C(C)(C)O)NC(=O)[C@H](CC3CCCCC3)NC(=O)[C@H](CCN)NC(=O)[C@@H](CC(C)C)NC(=O)[C@H](C)N(C)C(=O)[C@H](Cc3ccc(OCC(=O)O)cc3)NC(=O)[C@H](Cc3ccc(-c4ccccc4)cc3)NC(=O)[C@H](Cc3cc(F)c(O)c(F)c3)NC2=O)c1` [Example 1290] ({CH2CO}-[Dab][Phe(4-COOH)]D[Phe(3-Me)][Tyr(3,5-F2)][Bip]Y(Carboxymethyl)[NMeA][dL][Dab][Cha][Val(3-OH)]SC[Dab][Aun]-OH; thioether N-14), `Cc1cccc(C[C@@H]2NC(=O)[C@H](CC(=O)O)NC(=O)[C@H](Cc3ccc(C(=O)O)cc3)NC(=O)[C@H](CCN)NC(=O)CSC[C@@H](C(=O)N[C@@H](CCN)C(=O)NCCCCCCCCCCC(=O)O)NC(=O)[C@H](CO)NC(=O)[C@H](C(C)(C)O)NC(=O)[C@H](CC3CCCCC3)NC(=O)[C@H](CCN)NC(=O)[C@@H](CC(C)C)NC(=O)[C@H](C)N(C)C(=O)[C@H](Cc3ccc(OCC(=O)O)cc3)NC(=O)[C@H](Cc3ccc(-c4ccccc4)cc3)NC(=O)[C@H](Cc3ccc(O)c(Cl)c3)NC2=O)c1` [Example 1293] ({CH2CO}-[Dab][Phe(4-COOH)]D[Phe(3-Me)][Tyr(3-Cl)][Bip]Y(Carboxymethyl)[NMeA][dL][Dab][Cha][Val(3-OH)]SC[Dab][Aun]-OH; thioether N-14) is 1.8-fold higher in IC50: 0.0201 µM for the first, 0.0358 µM for the second. The first is the more potent here.

`COc1ccc(C[C@@H]2NC(=O)[C@H](Cc3cccc(C)c3)NC(=O)[C@H](CC(=O)O)NC(=O)[C@H](Cc3ccc(C(=O)O)cc3)NC(=O)[C@H](CCN)NC(=O)CSC[C@@H](C(=O)N[C@@H](CCN)C(=O)NCCCCCCCCCCC(=O)O)NC(=O)[C@H](CO)NC(=O)[C@H](C(C)(C)O)NC(=O)[C@H](CC3CCCCC3)NC(=O)[C@H](CCN)NC(=O)[C@@H](CC(C)C)NC(=O)[C@H](C)N(C)C(=O)[C@H](Cc3ccc(OCC(=O)O)cc3)NC(=O)[C@H](Cc3ccc(-c4ccccc4)cc3)NC2=O)cc1` [Example 1291] ({CH2CO}-[Dab][Phe(4-COOH)]D[Phe(3-Me)]Y(Me)[Bip]Y(Carboxymethyl)[NMeA][dL][Dab][Cha][Val(3-OH)]SC[Dab][Aun]-OH; thioether N-14) and `Cc1cccc(C[C@@H]2NC(=O)[C@H](CC(=O)O)NC(=O)[C@H](Cc3ccc(C(=O)O)cc3)NC(=O)[C@H](CCN)NC(=O)CSC[C@@H](C(=O)N[C@@H](CCN)C(=O)NCCCCCCCCCCC(=O)O)NC(=O)[C@H](CO)NC(=O)[C@H](C(C)(C)O)NC(=O)[C@H](CC3CCCCC3)NC(=O)[C@H](CCN)NC(=O)[C@@H](CC(C)C)NC(=O)[C@H](C)N(C)C(=O)[C@H](Cc3ccc(OCC(=O)O)cc3)NC(=O)[C@H](Cc3ccc(-c4ccccc4)cc3)NC(=O)[C@H](Cc3cccc(Cl)c3)NC2=O)c1` [Example 1297] ({CH2CO}-[Dab][Phe(4-COOH)]D[Phe(3-Me)][Phe(3-Cl)][Bip]Y(Carboxymethyl)[NMeA][dL][Dab][Cha][Val(3-OH)]SC[Dab][Aun]-OH; thioether N-14) are within 1.5-fold of each other in IC50: 0.0227 µM for the first, 0.0333 µM for the second.

Compared with `Cc1cccc(C[C@@H]2NC(=O)[C@H](CC(=O)O)NC(=O)[C@H](Cc3ccc(C(=O)O)cc3)NC(=O)[C@H](CCN)NC(=O)CSC[C@@H](C(=O)N[C@@H](CCN)C(=O)NCCCCCCCCCCC(=O)O)NC(=O)[C@H](CO)NC(=O)[C@H](C(C)(C)O)NC(=O)[C@H](CC3CCCCC3)NC(=O)[C@H](CCN)NC(=O)[C@@H](CC(C)C)NC(=O)[C@H](C)N(C)C(=O)[C@H](Cc3ccc(OCC(=O)O)cc3)NC(=O)[C@H](Cc3ccc(-c4ccccc4)cc3)NC(=O)[C@H](c3ccccc3)NC2=O)c1` [Example 1292] ({CH2CO}-[Dab][Phe(4-COOH)]D[Phe(3-Me)][Phg][Bip]Y(Carboxymethyl)[NMeA][dL][Dab][Cha][Val(3-OH)]SC[Dab][Aun]-OH; thioether N-14), `Cc1cccc(C[C@@H]2NC(=O)[C@H](CC(=O)O)NC(=O)[C@H](Cc3ccc(C(=O)O)cc3)NC(=O)[C@H](CCN)NC(=O)CSC[C@@H](C(=O)N[C@@H](CCN)C(=O)NCCCCCCCCCCC(=O)O)NC(=O)[C@H](CO)NC(=O)[C@H](C(C)(C)O)NC(=O)[C@H](CC3CCCCC3)NC(=O)[C@H](CCN)NC(=O)[C@@H](CC(C)C)NC(=O)[C@H](C)N(C)C(=O)[C@H](Cc3ccc(OCC(=O)O)cc3)NC(=O)[C@H](Cc3ccc(-c4ccccc4)cc3)NC(=O)[C@H](C3CC3)NC2=O)c1` [Example 1295] ({CH2CO}-[Dab][Phe(4-COOH)]D[Phe(3-Me)][Gly(cPr)][Bip]Y(Carboxymethyl)[NMeA][dL][Dab][Cha][Val(3-OH)]SC[Dab][Aun]-OH; thioether N-14) is 8.7-fold lower in IC50: 0.0969 µM for the first, 0.0112 µM for the second.

`Cc1cccc(C[C@@H]2NC(=O)[C@H](CC(=O)O)NC(=O)[C@H](Cc3ccc(C(=O)O)cc3)NC(=O)[C@H](CCN)NC(=O)CSC[C@@H](C(=O)N[C@@H](CCN)C(=O)NCCCCCCCCCCC(=O)O)NC(=O)[C@H](CO)NC(=O)[C@H](C(C)(C)O)NC(=O)[C@H](CC3CCCCC3)NC(=O)[C@H](CCN)NC(=O)[C@@H](CC(C)C)NC(=O)[C@H](C)N(C)C(=O)[C@H](Cc3ccc(OCC(=O)O)cc3)NC(=O)[C@H](Cc3ccc(-c4ccccc4)cc3)NC(=O)[C@H](Cc3cccs3)NC2=O)c1` [Example 1294] ({CH2CO}-[Dab][Phe(4-COOH)]D[Phe(3-Me)][2Thi][Bip]Y(Carboxymethyl)[NMeA][dL][Dab][Cha][Val(3-OH)]SC[Dab][Aun]-OH; thioether N-14) and `Cc1cccc(C[C@@H]2NC(=O)[C@H](CC(=O)O)NC(=O)[C@H](Cc3ccc(C(=O)O)cc3)NC(=O)[C@H](CCN)NC(=O)CSC[C@@H](C(=O)N[C@@H](CCN)C(=O)NCCCCCCCCCCC(=O)O)NC(=O)[C@H](CO)NC(=O)[C@H](C(C)(C)O)NC(=O)[C@H](CC3CCCCC3)NC(=O)[C@H](CCN)NC(=O)[C@@H](CC(C)C)NC(=O)[C@H](C)N(C)C(=O)[C@H](Cc3ccc(OCC(=O)O)cc3)NC(=O)[C@H](Cc3ccc(-c4ccccc4)cc3)NC(=O)[C@H](CCCC(=O)O)NC2=O)c1` [Example 1298] ({CH2CO}-[Dab][Phe(4-COOH)]D[Phe(3-Me)][Aad][Bip]Y(Carboxymethyl)[NMeA][dL][Dab][Cha][Val(3-OH)]SC[Dab][Aun]-OH; thioether N-14) are within 1.5-fold of each other in IC50: 0.0116 µM for the first, 0.0164 µM for the second.
